Experimental data published in patent US20210379062A1, “The use of a H3R inverse agonist for the treatment of excessive daytime sleepiness associated with parkinson's disease (PD)” (Novartis AG, priority 2018, published 2021).
Where two headings read alike, the source gives them in different places.

What was measured:
[1] = biological target: T1, Human histamine H3 receptor (Homo sapiens, UniProt Q9Y5N1); assay: Radioligand binding assay with [3H]-N-α-methylhistamine; conditions: human recombinant H3R, 1.0 nM [3H]-N-α-methylhistamine, Cheng-Prusoff
T1 construct: purchased PerkinElmer
Method: Human histamine H3 receptor membrane (PerkinElmer) were incubated with 1.0 nM [^3H]—N-α-methylhistamine (PerkinElmer) in the presence or absence of increasing concentrations of ligands for H3 receptor competition binding. The binding incubations were in a final volume of 0.1 ml buffer (50 mMTris pH 7.5, 5 mM MgCl2) at 28° C. for 120 minutes. Thioperamide (10 μM) was used to define non-specific binding.
All binding reactions were terminated by transferring 70 μl binding reaction from the reaction plate into filtration plates (Zeba 96-well Spin Desalting Plates, Thermo Scientific), followed by centrifugation at 1000 g for 2 min to collect the protein with bound radioligand. 200 μl of microscint-40 were added to determine the bound radiolabel by a Wallac Microbeta Trilux 2450 (Perkin Elmer). For all radioligand competition binding assays, IC50 values and Hill slopes were determined by GraphPad Prism: log(inhibitor) vs. response with variable slope. Ki was calculated using the equation in Biochem. Pharmacol. 1973. 22 (23), 3099-3108, from Cheng and Prusoff: Ki=IC50/{1+([radioligand]/Kd)}.

[2] = Rat brain and plasma PK; assay type: in vivo; conditions: 10 mg/kg oral, rats
[3] = test system: H3 receptor; assay: Ex vivo receptor occupancy assay in rat frontal cortex; conditions: rats; for dose that resulted in H3 receptor occupancy of 80-90%: oral dosing, 1 h after compound administration
Method: Male Sprague-Dawley rats (from Shanghai SLAC Laboratory Animal CO. LTD) at the age of 5-6 weeks were used. The animals were housed in a temperature and humidity-controlled environment on a 12 h light/dark cycle with food and water available ad libitum. All the procedures were approved by Institutional Animal Care and Use Committee of Chempartner Co., LTD (IACUC Protocol NO: A998HL0076).
Compounds were dissolved in 50 mM citrate buffer (pH 3.5), or saline. The compound was then diluted stepwise to the final concentration with vehicle. Animals were dosed by p.o. or i.v. in 1 ml/kg bodyweight.
At each time point, rats were decapitated immediately. Intact brain was removed, immersed and washed in pre-cooled saline. After drying with filter paper, frontal cortex was dissected with a double-blade with an about 30° angle starting at ⅓ of anterior rat brain (weight of most brain tissues around 70±10 mg). Brain tissue was transferred into a pre-weighed tube with homogenizer beads. The tubes were weighed again and the tissue net weight was recorded. Tissue sampling was done on ice with intervals of 1 min. Then, 50 mM HEPES (Gibco® by Life Technologies) buffer were added (equivalent to 3.75 μl/mg tissue weight) followed by homogenization (frequency 30/sec for 20 sec, TissueLyser, Quiagen).
The crude homogenate samples of rat frontal cortex were used to measure H3 receptor binding as described above with [^3H]—N-α-methylhistamine as radioligand. The protein concentration of each sample was determined by Pierce BCA Protein Assay Kit (Thermo).
The cortical homogenate was added to a 96-well plate containing [^3H]—N-α-methylhistamine (0.1 nM), in a volume of 0.2 ml (final protein concentration 4 μg/μl), incubated at 28° C. for 15 min and the reaction was stopped by rapid filtration using a filtration plate (Millipore multiscreen GF/B plate). The filters were washed three times with ice-cold wash buffer (50 mM Tris, pH 7.5) and 250 μl of Microscint-40 were added followed by determination of the bound radiolabel with a Wallac Microbeta Trilux 2450 (Perkin Elmer). Nonspecific binding was determined in the presence of 10 μM thioperamide. Each data point was obtained from a total of at least four animals. The inhibition of specific [^3H]NAMH binding, calculated as relative to vehicle-treated samples, was determined to provide an indication of receptor occupancy by the compound. The dose-dependent % RO and time course were analyzed using GraphPad Prism. The dose response was fit using GraphPad Prism: log(inhibitor) vs. response with variable slope.

[4] = test system: tele-methylhistamine (tMeHA); assay: Ex vivo PD determination: brain tele-methylhistamine time course in rats; set-up: species or system rat; conditions: 10 mg/kg oral; for effect on tMeHA levels: brain
Method: Male Sprague-Dawley rats (Shanghai SLAC Laboratory Animal Co. LTD) of 6-7 weeks age were used. Animals were housed in a temperature and humidity-controlled environment on a 12 h light/dark. All animals had free access to food and water. All procedures were approved by Institutional Animal Care and Use Committee of ChemPartner Co., LTD (IACUC Protocol NO: A998HL0002).
For bioanalysis of brain tissue tele-methylhistamine samples were further processed.
One aliquot of the stock solution was diluted using ethanol/phosphate buffer pH 7.4 (85:15, v/v) to achieve a series working solutions. The brain homogenate was centrifuged at 12000 rpm for 5 min at 4° C. Then 10 μL supernatant of the brain homogenate sample was added to 60 μL internal standard (d3-1-methyl-histamine, 20 ng/mL). The mixture was vortexed for 2 min and centrifuged at 12000 rpm for 5 min at 4° C. Finally, 60 μL supernatant was added and 3 μL supernatant was injected into LC-MS/MS for analysis (Agilent 6410, triple quadrupole mass spectrometer, Mobile phase A: H2O— 0.1% NH3, Mobile phase B: methanol— 0.1% NH3, Column: Ultimate XB-C18 (2.1×50 mm, 5 μm, Flow rate: 0.45 mL/min, temperature: 40° C.).

[5] = cited from earlier work
[6] = 100-200 mg/day, two weeks treatment, excessive sleepiness associated with PD

T1 sequence (Q9Y5N1 whole entry): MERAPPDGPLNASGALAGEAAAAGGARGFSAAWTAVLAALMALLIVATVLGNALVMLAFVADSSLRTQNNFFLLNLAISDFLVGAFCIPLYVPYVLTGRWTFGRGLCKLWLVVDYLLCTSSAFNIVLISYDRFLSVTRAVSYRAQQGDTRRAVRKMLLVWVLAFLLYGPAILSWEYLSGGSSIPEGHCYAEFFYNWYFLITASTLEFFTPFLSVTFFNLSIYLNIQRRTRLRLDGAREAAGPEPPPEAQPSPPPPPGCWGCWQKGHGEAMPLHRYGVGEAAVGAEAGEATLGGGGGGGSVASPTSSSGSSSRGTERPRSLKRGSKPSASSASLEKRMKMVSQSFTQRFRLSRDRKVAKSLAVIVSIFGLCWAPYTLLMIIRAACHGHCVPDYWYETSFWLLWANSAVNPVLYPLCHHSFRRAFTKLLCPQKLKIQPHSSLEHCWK

Row | SMILES | Ki [1] [nM] | rate of exposure-decline in brain, relative to Compound (I) [2] | total brain exposure [2] | brain exposure ([2]; 8 h time point) | RO ([3]; 10 mg/kg oral, 7 h) [%] | initial RO ([3]; 10 mg/kg oral, time not given) [%] | dose that resulted in H3 receptor occupancy of 80-90% [3] [mg/kg] | time at which tMeHA increase is first observed [4] [h] | tMeHA level at 8 h ([4]; 8 h) | effect on tMeHA levels [4] | initial RO ([3]; 300 mg/kg oral, 0.5 h) [%] | RO ([3]; 300 mg/kg oral, 8 h after compound administration) [%] | Epworth Sleeping Scale scores [5, 6] | sleep latency in the Maintenance of Wakefulness Test [5, 6] | Epworth Sleeping Scale scores ([5]; 200-400 mg/day for four weeks)
1 | O=C(c1ccc(CN2CCOCC2)cc1)N1CCN(C2CC2)CC1 [bavisant, reference compound] | 102 | much slower | very high | high | 37 | 90 | 10 | 1 | stayed elevated | delayed increase | – | – | – | – | –
2 | Clc1ccc(CCCOCCCN2CCCCC2)cc1 [pitolisant, reference compound] | – | – | very low | – | – | – | 300 | – | – | no increase | ~90 | 40 | – | – | –
3 | NC(=O)C[S+]([O-])C(c1ccccc1)c1ccccc1 (stereo not drawn) [modafinil, 2-(benzhydrylsulfinyl)acetamide] | – | – | – | – | – | – | – | – | – | – | – | – | improved | but not sleep latency | no improvement
